The results in this text go back to PubChem BioAssay (NCI).

Some test systems named below: ACHN renal; COLO 205 colon; HCC-2998 colon; HOP-92 NSCLC; KM12 colon; OVCAR-5 ovarian; SK-MEL-5 melanoma; SNB-19 CNS; SNB-75 CNS; SR leukemia.
Test in all cases: inhibition of tumour cell growth, NCI panel, 48 h

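Dose response: 5 concentrations. Exposure: 48 h. Format: 96-well plates. Endpoint: linear interpolation; highest concentration if not reached. Here, GI50 denotes the concentration required for 50% inhibition of growth. TGI: concentration producing complete growth inhibition.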

Consider `CCCCCCCCSC(SCCCCCCCC)=C1C(=O)N(c2ccccc2)N=C1C`, for which the TGI in the experiment on ACHN renal was > 100 µM; in the experiment with COLO 205 colon, 46.5 µM; with HCC-2998 colon it was > 100 µM; in the experiment with HOP-92 NSCLC, 77.8 µM; in the experiment on KM12 colon, > 100 µM; with OVCAR-5 ovarian, > 100 µM. Moreover, the TGI is > 100 µM in the experiment on SK-MEL-5 melanoma, > 100 µM in the experiment with SNB-19 CNS, > 100 µM with SNB-75 CNS and 34.6 µM in the experiment on SR leukemia.
`CC(=O)OCC1OC(O[C@@H]2C[C@H]3C(C)(C)[C@H](OC(C)=O)CC[C@]3(C)[C@H]3CC[C@@H]4[C@]5(CC[C@@]4(C)[C@@]32C)O[C@@H]([C@H](O)C(C)(C)O)C[C@@H]5C)C(O)C(O)C1O` (stereo partly drawn): the GI50 with ACHN renal was 9.23 µM; in the experiment on COLO 205 colon, 4.11 µM; with HCC-2998 colon, 3.64 µM; in the experiment with HOP-92 NSCLC it was 10 µM; in the experiment with KM12 colon, 2 µM; in the experiment with OVCAR-5 ovarian, 5.07 µM. Also, the GI50 in the experiment on SK-MEL-5 melanoma is 10.7 µM; with SNB-19 CNS, 12.5 µM; in the experiment on SNB-75 CNS, 5.13 µM; in the experiment on SR leukemia, 3.08 µM. The TGI worked out at 21.3 µM in the experiment with ACHN renal; 14.3 µM with COLO 205 colon; 15.9 µM with HCC-2998 colon; 21.6 µM in the experiment with HOP-92 NSCLC; 7.68 µM in the experiment with KM12 colon; 17.5 µM in the experiment with OVCAR-5 ovarian. Also, the TGI is 22.5 µM in the experiment on SK-MEL-5 melanoma, 30.5 µM with SNB-19 CNS, 18.4 µM in the experiment with SNB-75 CNS and 12.9 µM in the experiment with SR leukemia.
In the case of `N#CC(C#N)=C/C=C/c1cccc([N+](=O)[O-])c1`, the GI50 in the experiment on ACHN renal was 0.927 µM; in the experiment with COLO 205 colon it was 1.26 µM; with HCC-2998 colon, 1.68 µM; in the experiment with HOP-92 NSCLC it was 2.43 µM; in the experiment with KM12 colon, 1.28 µM; in the experiment with OVCAR-5 ovarian, 2.24 µM. The GI50 in the experiment with SK-MEL-5 melanoma is 1.35 µM; in the experiment with SNB-19 CNS, 3.35 µM; in the experiment on SNB-75 CNS it was 1.73 µM; in the experiment with SR leukemia it was 0.576 µM. The TGI in the experiment on ACHN renal is 2.22 µM; in the experiment on COLO 205 colon, 3.26 µM; in the experiment with HCC-2998 colon, 3.05 µM; in the experiment with HOP-92 NSCLC it was 7.71 µM; in the experiment with KM12 colon, 3.2 µM; in the experiment on OVCAR-5 ovarian it was 7.96 µM. Moreover, the TGI in the experiment on SK-MEL-5 melanoma is 2.66 µM; in the experiment on SNB-19 CNS, 16 µM; in the experiment with SNB-75 CNS, 6.28 µM; in the experiment with SR leukemia, 15.3 µM.
Take `COc1cc(C(=O)c2c(-c3ccccc3)oc3ccccc23)cc(OC)c1O`: the GI50 in the experiment on ACHN renal was 4.49 µM; in the experiment on COLO 205 colon, 18.9 µM; in the experiment on HCC-2998 colon it was 5.2 µM; in the experiment with HOP-92 NSCLC, 0.595 µM; in the experiment with KM12 colon, 3.99 µM; in the experiment with OVCAR-5 ovarian, 4.64 µM. Also, the GI50 in the experiment on SK-MEL-5 melanoma was 2.57 µM; with SNB-19 CNS, 6.76 µM; with SNB-75 CNS, 0.231 µM; in the experiment on SR leukemia, 0.377 µM. Further, the TGI was 41.1 µM with ACHN renal; 43.3 µM with COLO 205 colon; 20.4 µM in the experiment with HCC-2998 colon; 12.7 µM in the experiment on HOP-92 NSCLC; 16.5 µM in the experiment on KM12 colon; 32.6 µM in the experiment on OVCAR-5 ovarian. Moreover, the TGI in the experiment on SK-MEL-5 melanoma turned out to be 12.6 µM; with SNB-19 CNS it was 21.7 µM; in the experiment on SNB-75 CNS, 2.22 µM; with SR leukemia, 23.9 µM.
Consider `O=C(Nc1ccc(-c2nc3ccc(NC(=O)c4ccc(Cl)cc4)cc3[nH]2)cc1)c1ccc(Cl)cc1`, for which the GI50 in the experiment on ACHN renal is 8.65 µM; in the experiment with COLO 205 colon, 2.47 µM; with HCC-2998 colon, 7.47 µM; in the experiment on HOP-92 NSCLC, 2.68 µM; in the experiment with KM12 colon, 2.16 µM; in the experiment with OVCAR-5 ovarian, 5.45 µM. Besides, the GI50 in the experiment with SK-MEL-5 melanoma is 3.53 µM; with SNB-19 CNS, 13.8 µM; with SNB-75 CNS, 1.52 µM; in the experiment on SR leukemia, 0.769 µM. Further, the TGI in the experiment with ACHN renal was found to be 21.1 µM; in the experiment with COLO 205 colon, 6.54 µM; with HCC-2998 colon, 21.4 µM; in the experiment on HOP-92 NSCLC, 11 µM; in the experiment with KM12 colon, 5.38 µM; in the experiment with OVCAR-5 ovarian, 19.2 µM. In addition, the TGI came out at 14.4 µM in the experiment on SK-MEL-5 melanoma, 28.4 µM in the experiment with SNB-19 CNS, 7.93 µM in the experiment with SNB-75 CNS and 4.34 µM in the experiment on SR leukemia.
For `CC1=CC(=O)c2[nH]c3ccccc3c2C1=O`, the GI50 was 4.14 µM in the experiment on ACHN renal; 4.12 µM with COLO 205 colon; 7.01 µM in the experiment with HCC-2998 colon; 3.98 µM in the experiment with HOP-92 NSCLC; 4.4 µM in the experiment on KM12 colon; 4.22 µM in the experiment on SK-MEL-5 melanoma. Further, the values for the GI50 in the experiment on SNB-75 CNS and in the experiment on SR leukemia were 4.36 µM and 5.71 µM, respectively. Further, the TGI in the experiment on ACHN renal stood at 7.54 µM; with COLO 205 colon it was 7.55 µM; with HCC-2998 colon, 24 µM; in the experiment on HOP-92 NSCLC it was 7.36 µM; in the experiment on KM12 colon, 9.01 µM; with OVCAR-5 ovarian, 12.2 µM. The TGI is 7.66 µM with SK-MEL-5 melanoma, > 25 µM with SNB-19 CNS, 8.28 µM with SNB-75 CNS and 16.7 µM with SR leukemia.
Consider `Nc1nc(Cl)cc(NCCCCCCCCCCNc2cc(Cl)nc(N)n2)n1`, for which the TGI is 0.0447 µM in the experiment on ACHN renal; > 100 µM in the experiment on COLO 205 colon; > 100 µM in the experiment with HCC-2998 colon; > 100 µM with HOP-92 NSCLC; > 100 µM in the experiment with KM12 colon; > 100 µM in the experiment on OVCAR-5 ovarian. Besides, the TGI is 4.47 µM in the experiment with SK-MEL-5 melanoma, > 100 µM in the experiment on SNB-19 CNS, 68.8 µM in the experiment on SNB-75 CNS and > 100 µM in the experiment with SR leukemia.
